System: 496974-208-R-J2-PDC complex spheroids, growth % test/control
Test: Anticancer human tumor 496974-208-R-J2-PDC patient-derived pancreatic carcinoma cell line growth inhibition [CLK]
Conditions: for IC50: curve of first compound; for viability, T/C: stronger effect = lower value; active means viability on the fitted dose curve at most 10% of control; inactive means the rest
How it was run: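 Patient-derived tumor cells grown as complex spheroids with HUVEC endothelial cells and mesenchymal stem cells, treated with drug combinations. Concentrations descend in half-log steps from near clinical Cmax, or from 10 microM if Cmax unknown.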
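Further: spheroids exposed to the drugs for 7 days before readout.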
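Wherever viability, T/C is given: 100% = DMSO vehicle control wells.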

CC(C)CC(NC(=O)C(Cc1ccccc1)NC(=O)c1cnccn1)B(O)O (centres undefined) + CN1CCN(c2cc(C(=O)Nc3cc4cc(-c5cnn(C)c5)ccc4cn3)ccn2)CC1
4.54 nM: IC50 (second compound 0.0316 µM)
active: viability, T/C (second compound 0.0316 µM, first compound 0.00949 µM) 1.7% | viability, T/C (second compound 0.0316 µM, first compound 0.03 µM) 0.32% | viability, T/C (second compound 0.0316 µM, first compound 0.0949 µM) 0.24% | viability, T/C (second compound 0.0316 µM, first compound 0.3 µM) 2.04% | viability, T/C (second compound 0.1 µM, first compound 0.00949 µM) 2% | viability, T/C (second compound 0.1 µM, first compound 0.03 µM) 0.33% | viability, T/C (second compound 0.1 µM, first compound 0.0949 µM) 0.27% | viability, T/C (second compound 0.1 µM, first compound 0.3 µM) 3.67% | viability, T/C (second compound 0.316 µM, first compound 0.000949 µM) 6.64% | viability, T/C (second compound 0.316 µM, first compound 0.003 µM) 5.3% | viability, T/C (second compound 0.316 µM, first compound 0.00949 µM) 0.71% | viability, T/C (second compound 0.316 µM, first compound 0.03 µM) 0.38% | viability, T/C (second compound 0.316 µM, first compound 0.0949 µM) 0.51% | viability, T/C (second compound 0.316 µM, first compound 0.3 µM) 2.72% | viability, T/C (second compound 1 µM, first compound 0.000949 µM) 0.49% | viability, T/C (second compound 1 µM, first compound 0.003 µM) 1.07% | viability, T/C (second compound 1 µM, first compound 0.00949 µM) 0.68% | viability, T/C (second compound 1 µM, first compound 0.03 µM) 0.63% | viability, T/C (second compound 1 µM, first compound 0.0949 µM) 2.26% | viability, T/C (second compound 1 µM, first compound 0.3 µM) 1.33% | viability, T/C (second compound 3.16 µM, first compound 0.000949 µM) 0.5% | viability, T/C (second compound 3.16 µM, first compound 0.003 µM) 2.35% | viability, T/C (second compound 3.16 µM, first compound 0.00949 µM) 0.66% | viability, T/C (second compound 3.16 µM, first compound 0.03 µM) 0.53% | viability, T/C (second compound 3.16 µM, first compound 0.0949 µM) 1.54% | viability, T/C (second compound 3.16 µM, first compound 0.3 µM) 2.08% | viability, T/C (second compound 10 µM, first compound 0.000949 µM) 0.27% | viability, T/C (second compound 10 µM, first compound 0.003 µM) 0.26% | viability, T/C (second compound 10 µM, first compound 0.00949 µM) 1.83% | viability, T/C (second compound 10 µM, first compound 0.03 µM) 0.24% | viability, T/C (second compound 10 µM, first compound 0.0949 µM) 0.3% | viability, T/C (second compound 10 µM, first compound 0.3 µM) 2.65%
3.84 nM: IC50 (second compound 0.1 µM)
inactive: viability, T/C (second compound 0.0316 µM, first compound 0.000949 µM) 104% | viability, T/C (second compound 0.0316 µM, first compound 0.003 µM) 77.2% | viability, T/C (second compound 0.1 µM, first compound 0.000949 µM) 85.5% | viability, T/C (second compound 0.1 µM, first compound 0.003 µM) 63.1%
< 0.949 nM: IC50 (second compound 0.316 µM) | IC50 (second compound 1 µM) | IC50 (second compound 3.16 µM) | IC50 (second compound 10 µM)

Cn1ncnc1[C@H]1c2n[nH]c(=O)c3cc(F)cc(c23)N[C@@H]1c1ccc(F)cc1 + CN1CCN(c2cc(C(=O)Nc3cc4cc(-c5cnn(C)c5)ccc4cn3)ccn2)CC1
active: viability, T/C (second compound 0.316 µM, first compound 0.000316 µM) 5.57% | viability, T/C (second compound 0.316 µM, first compound 0.001 µM) 7.18% | viability, T/C (second compound 0.316 µM, first compound 0.00316 µM) 5.28% | viability, T/C (second compound 0.316 µM, first compound 0.01 µM) 6.84% | viability, T/C (second compound 0.316 µM, first compound 0.0316 µM) 6.51% | viability, T/C (second compound 0.316 µM, first compound 0.1 µM) 9.2% | viability, T/C (second compound 1 µM, first compound 0.000316 µM) 0.52% | viability, T/C (second compound 1 µM, first compound 0.001 µM) 0.5% | viability, T/C (second compound 1 µM, first compound 0.00316 µM) 0.55% | viability, T/C (second compound 1 µM, first compound 0.01 µM) 0.33% | viability, T/C (second compound 1 µM, first compound 0.0316 µM) 0.32% | viability, T/C (second compound 1 µM, first compound 0.1 µM) 2.32% | viability, T/C (second compound 3.16 µM, first compound 0.000316 µM) 0.36% | viability, T/C (second compound 3.16 µM, first compound 0.001 µM) 0.46% | viability, T/C (second compound 3.16 µM, first compound 0.00316 µM) 1.75% | viability, T/C (second compound 3.16 µM, first compound 0.01 µM) 0.59% | viability, T/C (second compound 3.16 µM, first compound 0.0316 µM) 0.66% | viability, T/C (second compound 3.16 µM, first compound 0.1 µM) 0.41% | viability, T/C (second compound 10 µM, first compound 0.000316 µM) 0.27% | viability, T/C (second compound 10 µM, first compound 0.001 µM) 1.75% | viability, T/C (second compound 10 µM, first compound 0.00316 µM) 0.83% | viability, T/C (second compound 10 µM, first compound 0.01 µM) 0.22% | viability, T/C (second compound 10 µM, first compound 0.0316 µM) 2.44% | viability, T/C (second compound 10 µM, first compound 0.1 µM) 2.04%
inactive: viability, T/C (second compound 0.0316 µM, first compound 0.000316 µM) 112% | viability, T/C (second compound 0.0316 µM, first compound 0.001 µM) 106% | viability, T/C (second compound 0.0316 µM, first compound 0.00316 µM) 99.2% | viability, T/C (second compound 0.0316 µM, first compound 0.01 µM) 94.9% | viability, T/C (second compound 0.0316 µM, first compound 0.0316 µM) 107% | viability, T/C (second compound 0.0316 µM, first compound 0.1 µM) 96.5% | viability, T/C (second compound 0.1 µM, first compound 0.000316 µM) 84.8% | viability, T/C (second compound 0.1 µM, first compound 0.001 µM) 88.5% | viability, T/C (second compound 0.1 µM, first compound 0.00316 µM) 85.1% | viability, T/C (second compound 0.1 µM, first compound 0.01 µM) 79.6% | viability, T/C (second compound 0.1 µM, first compound 0.0316 µM) 84.1% | viability, T/C (second compound 0.1 µM, first compound 0.1 µM) 63.7%
< 0.316 nM: IC50 (second compound 0.316 µM) | IC50 (second compound 1 µM) | IC50 (second compound 3.16 µM) | IC50 (second compound 10 µM)
> 100 nM: IC50 (second compound 0.0316 µM) | IC50 (second compound 0.1 µM)

From PubChem BioAssay AID2060615 (Molecular Pharmacology Branch, DTP, NCI, 2025)
